pIC50: −log10 of the molar value.
Tested on: microsomal lipids
Test: Inhibition of lipid peroxidation (microsomal lipids, tert-butylhydroperoxide initiated, chemiluminescence detection)
Type: biochemical
Conditions: peroxidation of microsomal lipids initiated by tert-butylhydroperoxide
Source text: In this model, lignan compounds were compared to the well known, potent antioxidant Trolox, which is a water-soluble derivative of vitamin E.

| Compound | pIC50 |
| --- | --- |
| COc1cc(CC2COC(=O)C2(O)Cc2ccc(O)c(OC)c2)ccc1O (centres unmarked) [Nortrachelogenin] | 6.82 |
| COc1cc(CC2C(=O)OCC2C(=O)c2ccc(O)c(OC)c2)ccc1O (centres unmarked) [Oxomatairesinol] | 6.96 |
| Cc1c(C)c2c(c(C)c1O)CCC(C)(C(=O)O)O2 (centres unmarked) [Trolox, reference compound] | 6.66 |
| CCCC(=O)Oc1ccc(C[C@H]2COC(=O)[C@@H]2Cc2ccc(OC(=O)CCC)c(OC)c2)cc1OC [Matairesinoibutyrate] | 6.46 |
| HMR-benzoate | 6.92 |

Now those with a higher pIC50, led by results:

| pIC50 | Compound |
| --- | --- |
| 7.05 | COc1cc(C[C@@H](CO)[C@H](CO)Cc2ccc(O)c(OC)c2)ccc1O [Secoisolariciresinol] |
| 7.15 | COc1cc(C[C@H]2CO[C@H](c3ccc(O)c(OC)c3)[C@H]2CO)ccc1O [Lariciresinol] |
| 7.22 | COc1cc(C[C@H]2C(=O)OC[C@@H]2[C@H](O)c2ccc(O)c(OC)c2)ccc1O [Hydroxymatairesinol (HMR), Hydroxymatairesinol] |
| 7.27 | COc1cc(C[C@H]2COC(=O)[C@@H]2Cc2ccc(O)c(OC)c2)ccc1O [Matairesinol] |
| 7.17 | α-Conidendrin |
| 7.00 | HMR-butyrate |
